In US11572590B2, “Methods for evaluating tumor cell spheroids using 3D microfluidic cell culture device” (Dana-Farber Cancer Institute, Inc., priority 2017, dated 2023):
Read-outs that look alike come from different tables or passages of the source.

What was measured:
Test in all cases: SelectScreen Kinase Profiling, single point inhibition and IC50 for off-target kinases
Format in all cases: biochemical
off-target kinases [1] = biological target: T1, off-target kinases (Homo sapiens, UniProt O94806); settings: PRKCN (PKD3), ATP Km app, ZLYTE
T1 sequence (O94806 1-890): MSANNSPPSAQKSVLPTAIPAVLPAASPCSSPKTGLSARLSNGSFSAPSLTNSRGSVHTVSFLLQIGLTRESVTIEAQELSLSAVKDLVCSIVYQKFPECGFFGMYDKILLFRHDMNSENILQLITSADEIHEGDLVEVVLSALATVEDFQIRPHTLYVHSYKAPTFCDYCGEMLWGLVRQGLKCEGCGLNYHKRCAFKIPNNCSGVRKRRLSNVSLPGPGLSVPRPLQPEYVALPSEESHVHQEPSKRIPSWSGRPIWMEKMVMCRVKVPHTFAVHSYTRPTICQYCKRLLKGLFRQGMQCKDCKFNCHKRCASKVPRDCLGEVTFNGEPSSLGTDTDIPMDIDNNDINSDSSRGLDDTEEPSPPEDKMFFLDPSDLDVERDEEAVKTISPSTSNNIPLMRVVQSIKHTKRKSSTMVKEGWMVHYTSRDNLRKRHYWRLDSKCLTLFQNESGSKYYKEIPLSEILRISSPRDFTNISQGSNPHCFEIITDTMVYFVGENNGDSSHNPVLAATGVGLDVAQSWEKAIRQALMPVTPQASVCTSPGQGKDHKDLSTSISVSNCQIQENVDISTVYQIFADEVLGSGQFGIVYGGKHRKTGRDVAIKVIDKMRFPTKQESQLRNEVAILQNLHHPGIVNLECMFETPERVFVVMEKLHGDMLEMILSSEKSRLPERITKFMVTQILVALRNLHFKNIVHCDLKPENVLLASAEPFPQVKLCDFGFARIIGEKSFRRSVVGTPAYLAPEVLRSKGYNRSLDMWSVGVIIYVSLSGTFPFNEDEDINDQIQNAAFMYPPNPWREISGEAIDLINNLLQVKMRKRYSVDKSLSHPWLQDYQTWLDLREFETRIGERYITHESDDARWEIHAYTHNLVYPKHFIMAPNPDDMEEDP

off-target kinases [2] = biological target: off-target kinases (Homo sapiens, UniProt P17948); settings: FLT1 (VEGFR1), ZLYTE, ATP Km app
off-target kinases [3] = biological target: T2, off-target kinases (Homo sapiens, UniProt Q06418); settings: TYRO3 (RSE), ZLYTE, ATP Km app
T2 sequence (Q06418 41-890): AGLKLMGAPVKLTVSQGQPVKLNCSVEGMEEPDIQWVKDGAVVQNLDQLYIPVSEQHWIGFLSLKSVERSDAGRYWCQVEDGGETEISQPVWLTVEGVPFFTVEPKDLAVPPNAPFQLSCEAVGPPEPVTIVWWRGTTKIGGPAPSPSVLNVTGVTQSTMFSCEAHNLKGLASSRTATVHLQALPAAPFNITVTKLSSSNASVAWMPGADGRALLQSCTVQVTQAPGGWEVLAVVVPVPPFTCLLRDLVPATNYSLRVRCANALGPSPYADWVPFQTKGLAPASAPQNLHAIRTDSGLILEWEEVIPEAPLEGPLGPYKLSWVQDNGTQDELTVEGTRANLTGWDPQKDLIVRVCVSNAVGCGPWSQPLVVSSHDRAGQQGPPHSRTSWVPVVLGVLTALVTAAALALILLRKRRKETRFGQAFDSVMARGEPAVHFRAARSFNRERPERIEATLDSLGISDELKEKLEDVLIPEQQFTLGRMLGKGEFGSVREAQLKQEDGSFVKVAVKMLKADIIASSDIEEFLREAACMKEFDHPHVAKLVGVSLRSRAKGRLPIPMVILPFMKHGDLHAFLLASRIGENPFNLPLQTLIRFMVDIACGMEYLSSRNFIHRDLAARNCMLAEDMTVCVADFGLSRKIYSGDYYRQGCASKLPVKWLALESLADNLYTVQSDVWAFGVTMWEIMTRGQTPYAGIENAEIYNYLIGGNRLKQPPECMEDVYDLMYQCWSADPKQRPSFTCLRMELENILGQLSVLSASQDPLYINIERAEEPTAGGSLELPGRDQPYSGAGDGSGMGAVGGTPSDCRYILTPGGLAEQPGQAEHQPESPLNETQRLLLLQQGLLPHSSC

off-target kinases (Homo sapiens, UniProt P17948), sequence (P17948 27-1338): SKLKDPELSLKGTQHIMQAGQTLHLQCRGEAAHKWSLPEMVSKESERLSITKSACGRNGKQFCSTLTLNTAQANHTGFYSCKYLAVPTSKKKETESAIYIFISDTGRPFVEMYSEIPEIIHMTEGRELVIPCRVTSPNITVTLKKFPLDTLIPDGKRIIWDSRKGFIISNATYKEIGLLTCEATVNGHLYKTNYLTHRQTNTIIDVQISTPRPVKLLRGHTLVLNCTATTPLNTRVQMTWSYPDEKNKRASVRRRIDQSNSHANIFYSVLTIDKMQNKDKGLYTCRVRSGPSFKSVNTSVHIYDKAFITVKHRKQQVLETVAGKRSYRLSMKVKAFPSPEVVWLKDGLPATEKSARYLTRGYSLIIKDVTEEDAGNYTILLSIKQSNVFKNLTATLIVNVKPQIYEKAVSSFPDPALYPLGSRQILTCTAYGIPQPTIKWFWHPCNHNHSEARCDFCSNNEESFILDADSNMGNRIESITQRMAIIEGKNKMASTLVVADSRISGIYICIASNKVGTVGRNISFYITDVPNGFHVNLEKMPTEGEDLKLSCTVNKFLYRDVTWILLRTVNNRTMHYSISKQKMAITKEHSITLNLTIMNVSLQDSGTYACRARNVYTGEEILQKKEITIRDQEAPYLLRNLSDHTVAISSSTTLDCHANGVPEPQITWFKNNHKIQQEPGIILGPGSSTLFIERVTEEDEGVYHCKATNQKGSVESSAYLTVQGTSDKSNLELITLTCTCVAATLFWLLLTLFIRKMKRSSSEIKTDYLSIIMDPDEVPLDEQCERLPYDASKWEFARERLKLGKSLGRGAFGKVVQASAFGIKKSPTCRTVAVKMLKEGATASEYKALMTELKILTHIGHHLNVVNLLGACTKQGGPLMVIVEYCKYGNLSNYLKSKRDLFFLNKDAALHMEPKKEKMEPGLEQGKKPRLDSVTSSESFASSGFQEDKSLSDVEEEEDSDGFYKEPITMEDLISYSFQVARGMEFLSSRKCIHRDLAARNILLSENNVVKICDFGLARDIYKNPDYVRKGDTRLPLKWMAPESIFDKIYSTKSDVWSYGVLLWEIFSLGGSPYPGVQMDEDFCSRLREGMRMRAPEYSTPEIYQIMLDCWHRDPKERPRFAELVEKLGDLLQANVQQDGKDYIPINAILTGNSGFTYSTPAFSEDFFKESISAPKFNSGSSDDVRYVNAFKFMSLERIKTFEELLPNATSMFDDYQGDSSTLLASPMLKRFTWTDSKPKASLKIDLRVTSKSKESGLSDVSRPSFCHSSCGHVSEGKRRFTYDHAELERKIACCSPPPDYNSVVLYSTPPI

SMILES: N#Cc1cc(-c2ncnc(Nc3ccc(N4CCN(C5COC5)CC4)cc3)n2)ccc1OC1CCOCC1 [Compound 1, 5-(4-((4-(4-(oxetan-3-yl)piperazin-1-yl)phenyl)amino)-1,3,5-triazin-2-yl)-2-((tetrahydro-2H-pyran-4-yl)oxy)benzonitrile]
- inhibition (off-target kinases [1]; read-out: % Inhibition 1): 98%
- inhibition (off-target kinases [1]; read-out: % Inhibition 2): 96%
- inhibition (off-target kinases [1]; read-out: % Inhibition Avg): 97%
- inhibition (off-target kinases [2]; read-out: % Inhibition 1): 7%
- inhibition (off-target kinases [2]; read-out: % Inhibition 2): 4%
- inhibition (off-target kinases [2]; read-out: % Inhibition Avg): 6%
- inhibition (off-target kinases [3]; read-out: % Inhibition 1): 42%
- inhibition (off-target kinases [3]; read-out: % Inhibition 2): 39%
- inhibition (off-target kinases [3]; read-out: % Inhibition Avg): 41%
